Assay results published in the supplement of paper PMC10307832.

Key:
Assay in all cases: relative viability (nuclei count vs DMSO), 5 days (fraction); higher = more cells survive
[1] = compound: CN(C)CC1=CC(=CC=C1)N=C(C2=CC=CC=C2)C3=C(NC4=C3C=CC(=C4)C(=O)N(C)C)O + CC(=O)c1c(C)c2cnc(Nc3ccc(N4CCNCC4)cn3)nc2n(C2CCCC2)c1=O [Palbociclib] (partner 0.5 µM)
Method in brief: (§1)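 A single step with final 0.05% Triton X-100, 1% formaldehyde and 1 ug/ml Hoechst fixed the cells and stained nuclei 5 days after treatment. Lung cancer cell lines in 1536-well plates had been treated by pin tool the day after seeding with one drug alone or a fixed anchor-drug dose plus five library-drug doses (not always all listed) in √10 steps, and nuclei were counted on 4× images. Relative viability is the ratio of nuclei in treated wells to nuclei in vehicle wells, taken as the median of duplicate plates.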

[2] = compound: CN(C)CC1=CC(=CC=C1)N=C(C2=CC=CC=C2)C3=C(NC4=C3C=CC(=C4)C(=O)N(C)C)O + Cc1nc(Nc2ncc(C(=O)Nc3c(C)cccc3Cl)s2)cc(N2CCN(CCO)CC2)n1 [Dasatinib] (partner 0.075 µM)
Method in brief: as §1

[3] = compound: CN(C)CC1=CC(=CC=C1)N=C(C2=CC=CC=C2)C3=C(NC4=C3C=CC(=C4)C(=O)N(C)C)O + Nc1nc2[nH]cc(CCc3ccc(C(=O)N[C@@H](CCC(=O)O)C(=O)O)cc3)c2c(=O)[nH]1 [Pemetrexed] (partner 0.2 µM)
Method in brief: as §1

[4] = compound: CN(C)CC1=CC(=CC=C1)N=C(C2=CC=CC=C2)C3=C(NC4=C3C=CC(=C4)C(=O)N(C)C)O + O=C(CCCCCCC(=O)Nc1ccccc1)NO [Vorinostat] (partner 1 µM)
Method in brief: as §1

Row | Cell Line | relative viability ([1]; first compound 0.08 µM) | relative viability ([1]; first compound 0.253 µM) | relative viability ([1]; first compound 0.8 µM) | relative viability ([1]; first compound 2.53 µM) | relative viability ([1]; first compound 8 µM) | relative viability ([2]; first compound 0.08 µM) | relative viability ([2]; first compound 0.253 µM) | relative viability ([2]; first compound 0.8 µM) | relative viability ([2]; first compound 2.53 µM) | relative viability ([2]; first compound 8 µM) | relative viability ([3]; first compound 0.08 µM) | relative viability ([3]; first compound 0.253 µM) | relative viability ([3]; first compound 0.8 µM) | relative viability ([3]; first compound 2.53 µM) | relative viability ([3]; first compound 8 µM) | relative viability ([4]; first compound 0.08 µM) | relative viability ([4]; first compound 0.253 µM) | relative viability ([4]; first compound 0.8 µM) | relative viability ([4]; first compound 2.53 µM) | relative viability ([4]; first compound 8 µM)
1 | NCI-H2126 | 0.373 | 0.362 | 0.286 | 0.363 | 0.36 | 0.717 | 0.676 | 0.631 | 0.607 | 0.635 | 0.677 | 0.706 | 0.708 | 0.639 | 0.626 | 0.822 | 0.767 | 0.475 | 0.8 | 0.554
2 | NCI-H2170 | 0.443 | 0.384 | 0.341 | 0.368 | 0.397 | 0.554 | 0.487 | 0.292 | 0.575 | 0.519 | 0.245 | 0.281 | 0.29 | 0.264 | 0.271 | 0.93 | 0.884 | 0.693 | 0.829 | 0.643
3 | NCI-H2228 | 0.825 | 0.602 | 0.715 | 0.673 | 0.77 | 0.518 | 0.484 | 0.479 | 0.424 | 0.412 | 0.312 | 0.36 | 0.339 | 0.33 | 0.353 | 0.653 | 0.583 | 0.977 | 0.65 | 0.542
4 | NCI-H2342 | 0.519 | 0.528 | 0.549 | 0.547 | 0.605 | 0.281 | 0.399 | 0.287 | 0.329 | 0.338 | 0.763 | 0.762 | 0.829 | 0.836 | 0.778 | 0.728 | 0.928 | 0.773 | 0.87 | 0.913
5 | NCI-H2347 | 0.428 | 0.389 | 0.445 | 0.456 | 0.518 | 0.347 | 0.326 | 0.293 | 0.252 | 0.2 | 0.405 | 0.461 | 0.418 | 0.42 | 0.43 | 0.604 | 0.736 | 0.617 | 0.539 | 0.565
6 | NCI-H2405 | 0.545 | 0.562 | 0.513 | 0.467 | 0.478 | 0.206 | 0.222 | 0.237 | 0.204 | 0.183 | 1.2 | 1.07 | 0.936 | 1.08 | 0.828 | 1.1 | 1.01 | 1.06 | 0.987 | 1.01
7 | NCI-H3122 | 0.17 | 0.15 | 0.204 | 0.17 | 0.226 | 0.686 | 0.867 | 0.846 | 0.844 | 0.951 | 0.19 | 0.207 | 0.196 | 0.191 | 0.186 | 0.966 | 0.947 | 1.17 | 0.905 | 0.898
8 | PC-3 [JPC-3] | 0.543 | 0.573 | 0.534 | 0.557 | 0.602 | 1.01 | 1.03 | 0.911 | 0.914 | 0.992 | 1.08 | 1.04 | 0.665 | 1.08 | 1.28 | 0.853 | 0.834 | 0.682 | 0.883 | 1.03
